Assay results reported in publication PMC12254355 (Nature Communications, 2025).
Ends that are not written are not given here.

Key:
E. coli ATCC 11775 = conditions: ATCC 11775, 24 h
E. coli AIC221 = conditions: AIC221, 24 h
K. pneumoniae ATCC 13883 = conditions: ATCC 13883, 24 h
P. aeruginosa PA14 = conditions: PA14, 24 h
[1] = tested on: E. faecium ATCC 700221 - VRE; conditions: ATCC 700221, 24 h
HEK293T cells = conditions: for CC50 vs HEK293T cells (source data of Figure 4a): 24 h
human red blood cells = conditions: pH 7.4
A. baumannii ATCC 19606 = conditions: ATCC 19606, 24 h
P. aeruginosa PAO1 = conditions: PAO1, 24 h
S. aureus ATCC 12600 = conditions: ATCC 12600, 24 h
[2] = tested on: S. aureus ATCC BAA-1556 - MRSA; conditions: ATCC BAA-1556, 24 h

KYRRGVSPWLKKELVRLHNNLRSKVAGGK [Arachnoserver-31]
Minimal Inhibitory Concentration, E. coli ATCC 11775 (-) (E. coli ATCC 11775): 8 µmol/L
Minimal Inhibitory Concentration, E. coli AIC221 (-) (E. coli AIC221): 4 µmol/L
Minimal Inhibitory Concentration, K. pneumoniae ATCC 13883 (-) (K. pneumoniae ATCC 13883): 4 µmol/L
Minimal Inhibitory Concentration, P. aeruginosa PA14 (-) (P. aeruginosa PA14): 64 µmol/L
Minimal Inhibitory Concentration, E. faecium ATCC 700221 - VRE (+) [1]: 16 µmol/L
CC50 vs HEK293T cells (HEK293T cells): 13 µM
SIcytotoxicity (HEK293T cells): 3.2
CC50 vs HEK293T cells (source data of Figure 4a) (HEK293T cells): 12.67 µM
HC50 (human red blood cells): 1392.0

KFSVFSKILRSIAKVF [Arachnoserver-18]
Minimal Inhibitory Concentration, A. baumannii ATCC 19606 (-) (A. baumannii ATCC 19606): 8 µmol/L
Minimal Inhibitory Concentration, E. coli ATCC 11775 (-) (E. coli ATCC 11775): 4 µmol/L
Minimal Inhibitory Concentration, E. coli AIC221 (-) (E. coli AIC221): 4 µmol/L
Minimal Inhibitory Concentration, P. aeruginosa PAO1 (-) (P. aeruginosa PAO1): 32 µmol/L
Minimal Inhibitory Concentration, P. aeruginosa PA14 (-) (P. aeruginosa PA14): 16 µmol/L
Minimal Inhibitory Concentration, S. aureus ATCC 12600 (+) (S. aureus ATCC 12600): 16 µmol/L
Minimal Inhibitory Concentration, S. aureus ATCC BAA-1556 - MRSA (+) [2]: 16 µmol/L
Minimal Inhibitory Concentration, E. faecium ATCC 700221 - VRE (+) [1]: 8 µmol/L
SIcytotoxicity (HEK293T cells): 3.1
CC50 vs HEK293T cells (source data of Figure 4a) (HEK293T cells): 12.34 µM
HC50 (human red blood cells): 53.5

KIKWFKTMKSLAKFLAK [Arachnoserver-33]
Minimal Inhibitory Concentration, A. baumannii ATCC 19606 (-) (A. baumannii ATCC 19606): 8 µmol/L
Minimal Inhibitory Concentration, E. coli ATCC 11775 (-) (E. coli ATCC 11775): 8 µmol/L
Minimal Inhibitory Concentration, E. coli AIC221 (-) (E. coli AIC221): 4 µmol/L
Minimal Inhibitory Concentration, K. pneumoniae ATCC 13883 (-) (K. pneumoniae ATCC 13883): 4 µmol/L
Minimal Inhibitory Concentration, P. aeruginosa PAO1 (-) (P. aeruginosa PAO1): 32 µmol/L
Minimal Inhibitory Concentration, P. aeruginosa PA14 (-) (P. aeruginosa PA14): 8 µmol/L
Minimal Inhibitory Concentration, E. faecium ATCC 700221 - VRE (+) [1]: 32 µmol/L
SIcytotoxicity (HEK293T cells): 8.0
HC50 (human red blood cells): 144.1

KNKRFIRNLRSNLYQKIIKSTKSLL [Arachnoserver-9]
Minimal Inhibitory Concentration, A. baumannii ATCC 19606 (-) (A. baumannii ATCC 19606): 32 µmol/L
Minimal Inhibitory Concentration, E. coli ATCC 11775 (-) (E. coli ATCC 11775): 16 µmol/L
Minimal Inhibitory Concentration, E. coli AIC221 (-) (E. coli AIC221): 8 µmol/L
Minimal Inhibitory Concentration, K. pneumoniae ATCC 13883 (-) (K. pneumoniae ATCC 13883): 16 µmol/L
Minimal Inhibitory Concentration, P. aeruginosa PAO1 (-) (P. aeruginosa PAO1): 16 µmol/L
Minimal Inhibitory Concentration, P. aeruginosa PA14 (-) (P. aeruginosa PA14): 16 µmol/L
Minimal Inhibitory Concentration, E. faecium ATCC 700221 - VRE (+) [1]: 16 µmol/L
SIcytotoxicity (HEK293T cells): 2.9
CC50 vs HEK293T cells (source data of Figure 4a) (HEK293T cells): 23.56 µM
HC50 (human red blood cells): 4947.0

KNKRFIRNLRSNLYQKIIKSTKSLL [UniprotKB-14]
Minimal Inhibitory Concentration, E. coli ATCC 11775 (-) (E. coli ATCC 11775): 32 µmol/L
Minimal Inhibitory Concentration, E. coli AIC221 (-) (E. coli AIC221): 8 µmol/L
Minimal Inhibitory Concentration, K. pneumoniae ATCC 13883 (-) (K. pneumoniae ATCC 13883): 32 µmol/L
Minimal Inhibitory Concentration, P. aeruginosa PAO1 (-) (P. aeruginosa PAO1): 32 µmol/L
Minimal Inhibitory Concentration, P. aeruginosa PA14 (-) (P. aeruginosa PA14): 32 µmol/L
Minimal Inhibitory Concentration, E. faecium ATCC 700221 - VRE (+) [1]: 32 µmol/L
SIcytotoxicity (HEK293T cells): 5.7
CC50 vs HEK293T cells (source data of Figure 4a) (HEK293T cells): 45.94 µM
HC50 (human red blood cells): 7.733e+045

KLLKIGLKSFARVLKKVL [UniprotKB-1]
Minimal Inhibitory Concentration, E. coli ATCC 11775 (-) (E. coli ATCC 11775): 8 µmol/L
Minimal Inhibitory Concentration, E. coli AIC221 (-) (E. coli AIC221): 4 µmol/L
Minimal Inhibitory Concentration, P. aeruginosa PAO1 (-) (P. aeruginosa PAO1): 8 µmol/L
Minimal Inhibitory Concentration, P. aeruginosa PA14 (-) (P. aeruginosa PA14): 8 µmol/L
Minimal Inhibitory Concentration, S. aureus ATCC 12600 (+) (S. aureus ATCC 12600): 16 µmol/L
CC50 vs HEK293T cells (HEK293T cells): 10 µM
SIcytotoxicity (HEK293T cells): 2.5
CC50 vs HEK293T cells (source data of Figure 4a) (HEK293T cells): 10.13 µM
HC50 (human red blood cells): 34.9

RRVKRFKKFFRKLKKSVKKRAKEFFK [ISOB-1]
Minimal Inhibitory Concentration, A. baumannii ATCC 19606 (-) (A. baumannii ATCC 19606): 64 µmol/L
Minimal Inhibitory Concentration, E. coli ATCC 11775 (-) (E. coli ATCC 11775): 16 µmol/L
Minimal Inhibitory Concentration, E. coli AIC221 (-) (E. coli AIC221): 8 µmol/L
Minimal Inhibitory Concentration, P. aeruginosa PAO1 (-) (P. aeruginosa PAO1): 4 µmol/L
Minimal Inhibitory Concentration, P. aeruginosa PA14 (-) (P. aeruginosa PA14): 8 µmol/L
Minimal Inhibitory Concentration, S. aureus ATCC 12600 (+) (S. aureus ATCC 12600): 64 µmol/L
Minimal Inhibitory Concentration, E. faecium ATCC 700221 - VRE (+) [1]: 16 µmol/L
SIcytotoxicity (HEK293T cells): 28.9
HC50 (human red blood cells): 2001.0

KIKWLKAMKSIAKFIAKK [Arachnoserver-5]
Minimal Inhibitory Concentration, A. baumannii ATCC 19606 (-) (A. baumannii ATCC 19606): 8 µmol/L
Minimal Inhibitory Concentration, E. coli ATCC 11775 (-) (E. coli ATCC 11775): 2 µmol/L
Minimal Inhibitory Concentration, E. coli AIC221 (-) (E. coli AIC221): 2 µmol/L
Minimal Inhibitory Concentration, K. pneumoniae ATCC 13883 (-) (K. pneumoniae ATCC 13883): 2 µmol/L
Minimal Inhibitory Concentration, P. aeruginosa PAO1 (-) (P. aeruginosa PAO1): 4 µmol/L
Minimal Inhibitory Concentration, P. aeruginosa PA14 (-) (P. aeruginosa PA14): 2 µmol/L
Minimal Inhibitory Concentration, E. faecium ATCC 700221 - VRE (+) [1]: 8 µmol/L
SIcytotoxicity (HEK293T cells): 7.0
CC50 vs HEK293T cells (source data of Figure 4a) (HEK293T cells): 13.96 µM
HC50 (human red blood cells): 46.7

KLLKIGLKSFARVLKKVL [Arachnoserver-1]
Minimal Inhibitory Concentration, A. baumannii ATCC 19606 (-) (A. baumannii ATCC 19606): 16 µmol/L
Minimal Inhibitory Concentration, E. coli ATCC 11775 (-) (E. coli ATCC 11775): 8 µmol/L
Minimal Inhibitory Concentration, E. coli AIC221 (-) (E. coli AIC221): 4 µmol/L
Minimal Inhibitory Concentration, K. pneumoniae ATCC 13883 (-) (K. pneumoniae ATCC 13883): 8 µmol/L
Minimal Inhibitory Concentration, P. aeruginosa PA14 (-) (P. aeruginosa PA14): 8 µmol/L
Minimal Inhibitory Concentration, S. aureus ATCC 12600 (+) (S. aureus ATCC 12600): 16 µmol/L
Minimal Inhibitory Concentration, S. aureus ATCC BAA-1556 - MRSA (+) [2]: 16 µmol/L
Minimal Inhibitory Concentration, E. faecium ATCC 700221 - VRE (+) [1]: 16 µmol/L
SIcytotoxicity (HEK293T cells): 6.6
CC50 vs HEK293T cells (source data of Figure 4a) (HEK293T cells): 26.22 µM
HC50 (human red blood cells): 82.7

RKFNWGKLFKSAKKLYKTGKKLSKNKNVRKALKFGK [Arachnoserver-7]
Minimal Inhibitory Concentration, A. baumannii ATCC 19606 (-) (A. baumannii ATCC 19606): 8 µmol/L
Minimal Inhibitory Concentration, E. coli ATCC 11775 (-) (E. coli ATCC 11775): 8 µmol/L
Minimal Inhibitory Concentration, E. coli AIC221 (-) (E. coli AIC221): 1 µmol/L
Minimal Inhibitory Concentration, K. pneumoniae ATCC 13883 (-) (K. pneumoniae ATCC 13883): 64 µmol/L
Minimal Inhibitory Concentration, P. aeruginosa PAO1 (-) (P. aeruginosa PAO1): 8 µmol/L
Minimal Inhibitory Concentration, P. aeruginosa PA14 (-) (P. aeruginosa PA14): 4 µmol/L
Minimal Inhibitory Concentration, E. faecium ATCC 700221 - VRE (+) [1]: 8 µmol/L
CC50 vs HEK293T cells (HEK293T cells): 7 µM
SIcytotoxicity (HEK293T cells): 6.8
CC50 vs HEK293T cells (source data of Figure 4a) (HEK293T cells): 6.812 µM
HC50 (human red blood cells): 7.0

LKLKSILGKLGVIL [UniprotKB-4]
Minimal Inhibitory Concentration, A. baumannii ATCC 19606 (-) (A. baumannii ATCC 19606): 64 µmol/L
Minimal Inhibitory Concentration, K. pneumoniae ATCC 13883 (-) (K. pneumoniae ATCC 13883): 64 µmol/L
CC50 vs HEK293T cells (HEK293T cells): 10 µM
SIcytotoxicity (HEK293T cells): 0.7
CC50 vs HEK293T cells (source data of Figure 4a) (HEK293T cells): 10.49 µM
HC50 (human red blood cells): 3.938e+054

KWLKAMKSIAKFIAKKQMKKHL [Arachnoserver-32]
Minimal Inhibitory Concentration, E. coli AIC221 (-) (E. coli AIC221): 64 µmol/L
Minimal Inhibitory Concentration, K. pneumoniae ATCC 13883 (-) (K. pneumoniae ATCC 13883): 16 µmol/L
Minimal Inhibitory Concentration, P. aeruginosa PAO1 (-) (P. aeruginosa PAO1): 8 µmol/L
Minimal Inhibitory Concentration, P. aeruginosa PA14 (-) (P. aeruginosa PA14): 16 µmol/L
Minimal Inhibitory Concentration, E. faecium ATCC 700221 - VRE (+) [1]: 4 µmol/L
CC50 vs HEK293T cells (HEK293T cells): 8 µM
SIcytotoxicity (HEK293T cells): 1.9
CC50 vs HEK293T cells (source data of Figure 4a) (HEK293T cells): 7.568 µM
HC50 (human red blood cells): 19.2

KLKKLRKWIYRIV [UniprotKB-8]
Minimal Inhibitory Concentration, A. baumannii ATCC 19606 (-) (A. baumannii ATCC 19606): 32 µmol/L
Minimal Inhibitory Concentration, E. coli ATCC 11775 (-) (E. coli ATCC 11775): 16 µmol/L
Minimal Inhibitory Concentration, K. pneumoniae ATCC 13883 (-) (K. pneumoniae ATCC 13883): 64 µmol/L
Minimal Inhibitory Concentration, E. faecium ATCC 700221 - VRE (+) [1]: 16 µmol/L
SIcytotoxicity (HEK293T cells): 3.5
CC50 vs HEK293T cells (source data of Figure 4a) (HEK293T cells): 27.64 µM
HC50 (human red blood cells): 636.4

KRLRAKMLNSKFIKLIKR [Conoserver-1]
Minimal Inhibitory Concentration, E. coli AIC221 (-) (E. coli AIC221): 16 µmol/L
Minimal Inhibitory Concentration, P. aeruginosa PAO1 (-) (P. aeruginosa PAO1): 32 µmol/L
Minimal Inhibitory Concentration, P. aeruginosa PA14 (-) (P. aeruginosa PA14): 32 µmol/L
Minimal Inhibitory Concentration, S. aureus ATCC BAA-1556 - MRSA (+) [2]: 32 µmol/L
Minimal Inhibitory Concentration, E. faecium ATCC 700221 - VRE (+) [1]: 32 µmol/L
SIcytotoxicity (HEK293T cells): 5.2
HC50 (human red blood cells): 1.085e+083
